According to US20130315843A1, “COMPOSITION FOR REDUCTION OF TRPA1 AND TRPV1 SENSATIONS” (priority 2012, published 2013):
Read-outs that look alike come from different tables or passages of the source.

Columns and labels:
[1] = target: human TRPV1 (Homo sapiens, UniProt Q8NER1); assay: FLIPR Ca2+ assay, reduction of L-Menthol activation of TRPV1; details: for Average Ca2+ Counts / % Reduction of L-Menthol TRPV1 Activation: antagonist 100 μM against 1 mM L-Menthol; for inhibition at 100 µM: read-out: % Reduction of L-Menthol TRPV1 Activation
[2] = target: human TRPA1 (Homo sapiens, UniProt O75762); assay: FLIPR Ca2+ assay, reduction of hydrogen peroxide activation of TRPA1; format: cell-based; design: expressed in transfected cells
Procedure: After centrifugation, a pellet of cells was formed in the bottom of the tube separating them from the supernatant solution.
The pelleted cells were re-suspended in 10 ml assay buffer and 90 μl aliquots (˜50,000 cells) per well delivered to a 96-well assay plate containing 10 μl of test compounds ([…]) or buffer control and incubated at room temperature for 30 minutes.

[3] = compound 100 μM against 200 μM hydrogen peroxide, Sets 1-4
[4] = compound 100 μM against 200 μM hydrogen peroxide, Sets 1-4, read-out: % Reduction of Hydrogen Peroxide TRPA1 Activation
[5] = 100 μM antagonist vs 500 μM hydrogen peroxide
[6] = read-out: % Reduction of Hydrogen Peroxide TRPA1 Activation

Sequence of human TRPA1 (O75762 whole entry): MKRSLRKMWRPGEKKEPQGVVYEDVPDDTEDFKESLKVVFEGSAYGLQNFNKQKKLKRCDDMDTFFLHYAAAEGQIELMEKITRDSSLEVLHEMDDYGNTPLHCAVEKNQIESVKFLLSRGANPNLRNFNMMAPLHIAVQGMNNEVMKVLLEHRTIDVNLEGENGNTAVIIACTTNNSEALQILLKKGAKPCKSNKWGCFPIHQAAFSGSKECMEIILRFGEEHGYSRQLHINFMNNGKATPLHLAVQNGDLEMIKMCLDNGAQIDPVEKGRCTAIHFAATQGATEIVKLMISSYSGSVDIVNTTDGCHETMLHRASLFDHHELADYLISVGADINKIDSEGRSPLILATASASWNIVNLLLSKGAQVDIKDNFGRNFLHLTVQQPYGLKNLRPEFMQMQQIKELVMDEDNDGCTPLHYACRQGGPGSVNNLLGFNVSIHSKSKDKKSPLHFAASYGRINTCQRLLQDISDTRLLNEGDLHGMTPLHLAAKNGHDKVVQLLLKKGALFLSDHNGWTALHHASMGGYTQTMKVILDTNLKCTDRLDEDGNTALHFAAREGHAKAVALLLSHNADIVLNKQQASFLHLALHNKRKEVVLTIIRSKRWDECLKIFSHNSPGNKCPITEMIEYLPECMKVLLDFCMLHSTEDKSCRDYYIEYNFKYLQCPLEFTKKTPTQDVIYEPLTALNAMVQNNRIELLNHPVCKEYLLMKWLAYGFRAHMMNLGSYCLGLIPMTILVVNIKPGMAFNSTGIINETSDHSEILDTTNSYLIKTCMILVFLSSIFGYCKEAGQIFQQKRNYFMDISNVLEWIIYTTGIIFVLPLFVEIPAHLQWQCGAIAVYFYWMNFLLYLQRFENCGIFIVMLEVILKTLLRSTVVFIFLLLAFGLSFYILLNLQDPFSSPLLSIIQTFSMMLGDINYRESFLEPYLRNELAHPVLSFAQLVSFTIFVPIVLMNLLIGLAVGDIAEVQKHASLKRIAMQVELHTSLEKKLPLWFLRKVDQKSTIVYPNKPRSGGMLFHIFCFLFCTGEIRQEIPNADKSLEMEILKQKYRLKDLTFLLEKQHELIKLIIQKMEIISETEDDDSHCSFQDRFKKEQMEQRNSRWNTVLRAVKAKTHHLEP
Sequence of human TRPV1 (Q8NER1 whole entry): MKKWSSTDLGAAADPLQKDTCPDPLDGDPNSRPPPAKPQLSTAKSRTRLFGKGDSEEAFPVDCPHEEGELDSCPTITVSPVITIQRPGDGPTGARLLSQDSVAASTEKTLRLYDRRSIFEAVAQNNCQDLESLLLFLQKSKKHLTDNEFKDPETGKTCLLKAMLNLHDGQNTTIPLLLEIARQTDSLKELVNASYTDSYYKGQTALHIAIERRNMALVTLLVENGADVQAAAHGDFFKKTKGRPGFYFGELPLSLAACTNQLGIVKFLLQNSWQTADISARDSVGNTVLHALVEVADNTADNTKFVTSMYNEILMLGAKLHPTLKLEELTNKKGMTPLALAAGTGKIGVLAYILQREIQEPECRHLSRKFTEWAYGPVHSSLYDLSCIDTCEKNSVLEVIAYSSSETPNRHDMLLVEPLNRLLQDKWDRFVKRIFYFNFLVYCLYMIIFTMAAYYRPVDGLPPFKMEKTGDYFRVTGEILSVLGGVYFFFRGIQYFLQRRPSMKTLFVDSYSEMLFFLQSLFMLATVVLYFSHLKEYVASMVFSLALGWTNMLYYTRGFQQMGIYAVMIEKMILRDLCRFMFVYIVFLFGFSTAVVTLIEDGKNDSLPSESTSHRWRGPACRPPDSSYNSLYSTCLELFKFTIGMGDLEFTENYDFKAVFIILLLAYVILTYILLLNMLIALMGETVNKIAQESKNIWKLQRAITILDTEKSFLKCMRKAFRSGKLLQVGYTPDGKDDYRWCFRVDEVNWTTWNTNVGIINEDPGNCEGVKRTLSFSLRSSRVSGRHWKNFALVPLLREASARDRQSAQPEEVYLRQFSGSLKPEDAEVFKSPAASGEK

Row | Molecule | Average Ca2+ Counts [1] | inhibition at 100 µM [1] | Average Ca++ Counts [2, 3] | inhibition at 100 µM [2, 4] | Block of hydrogen peroxide activation of TRPA1 [2, 5] | further results
1 | CC(O)c1ccccc1 (racemic) [(+−)-1-phenylethanol] | 1087.7 Counts | 41.6% |  |  |  | 
2 | CC(C)=CCCC(C)CCO (racemic) [(+−)-beta;-citronellol] | 1501.3 Counts |  |  |  |  | % Reduction of L-Menthol TRPV1 Activation [1]: 22.5%
3 | CCCCCCCCCCO [1-decanol] | 1175.7 Counts | 37.5% |  |  |  | 
4 | COc1ccc(C)cc1C [2,4-dimethylanisole] | 1255.3 Counts | 33.9% |  |  |  | 
5 | COc1cccc(OC)c1O [2,6-dimethoxyphenol] | 1365.0 Counts | 28.8% |  |  |  | 
6 | CC(=O)c1cccn1C [2-acetyl-1-methylpyrrole] | 1254.0 Counts | 33.9% |  |  |  | 
7 | CCc1occc(=O)c1O [2-ethyl-3-hydroxy-4h-pyran-4-one] | 1095.3 Counts | 41.3% |  |  |  | 
8 | SCCc1cnccn1 [2-pyrazinylethanethiol] | 992.0 Counts | 46% | 1987.5 Counts | 81.2% |  | 
9 | CCC(C)C1CCCCC1=O (stereo not drawn) [2-sec.-butylcyclohexanone] | 1352.3 Counts | 29.4% |  |  |  | 
10 | CC(O)C(C)S (stereo not drawn) [3-mercapto-2-butanol] | 1008.3 Counts | 45.3% |  |  |  | 
11 | CCOc1ccc(C=O)cc1 [4-ethoxybenzaldehyde] | 1200.0 Counts | 36.4% |  |  |  | 
12 | COc1ccc(C(C)=O)cc1 [4′-methoxyacetophenone] | 1162.0 Counts | 38.2% |  |  |  | 
13 | CC(=O)OCC1=CCC2CC1C2(C)C (stereo not drawn) [6,6-dimethylbicyclo[3.1.1]hept-2-ene-2-methyl acetate] | 1448.3 Counts |  |  |  |  | % Reduction of L-Menthol TRPV1 Activation [1]: 24.9%
14 | O=C1O[C@H]([C@@H](O)CO)C([O-])=C1O.[Na+] [(+)-sodium 1-ascorbate] | 2961.0 Counts |  |  |  |  | % Reduction of L-Menthol TRPV1 Activation [1]: 26.6%
15 | C[C@@H](CO)c1ccccc1 [(r)-(+)-2-phenyl-1-propanol] | 1414.0 Counts | 26.5% |  |  |  | 
16 | CC(=O)OCC(C)(C)Cc1ccccc1 [alpha,alpha-dimethylhydrocinnamyl acetate] |  |  | 3367.0 Counts | 52.2% |  | 
17 | C=C(C)c1ccc(C)cc1 [alpha,p-dimethylstyrene] |  |  | 3735.5 Counts |  |  | % Reduction of Hydrogen Peroxide TRPA1 Activation [2, 3]: 57.2%
18 | CCCCCO [amyl alcohol] |  |  | 3149.0 Counts | 55.3% | BLOCK ONLY H2O2/TRPA1 | 
19 | C/C=C(\C)C(=O)OCc1ccccc1 [benzyl tiglate] |  |  | 2385.0 Counts | 59.4% | BLOCK ONLY H2O2/TRPA1 | 

Row | Molecule | Average Ca2+ Counts [1] | inhibition at 100 µM [1] | Average Ca++ Counts [2, 3] | inhibition at 100 µM [2, 4] | Block of hydrogen peroxide activation of TRPA1 [2, 5] | further results
20 | CC=CC(=O)O [but-2-enoic acid] |  |  | 5193.0 Counts | 51% | BLOCK ONLY H2O2/TRPA1 | 
21 | CCCCOC(=O)C(C)CC (stereo not drawn) [butyl 2-methylbutyrate] | 1233.7 Counts | 34.9% |  |  |  | 
22 | CCCCOC(=O)C(C)O (stereo not drawn) [butyl lactate] |  |  | 5157.0 Counts | 51.3% | BLOCK ONLY H2O2/TRPA1 | 
23 | CCCC=O [butyraldehyde] |  |  | 4725.5 Counts | 55.4% | BLOCK ONLY H2O2/TRPA1 | 
24 | Cc1ccc(C(C)C)cc1O [carvacrol] |  |  |  |  |  | Average Ca++ Counts [2]: 3464.5 Counts; inhibition at 100 µM [2, 6]: 50.8%
25 | C/C=C/C(=O)OCC/C=C\CC [crotonic acid cis-3-hexen-1-yl ester] | 1150.0 Counts | 38.7% |  |  |  | 
26 | CCOC(=O)C1OC1(C)c1ccccc1 (stereo not drawn) [empg] | 1164.0 Counts |  |  |  |  | % Reduction of L-Menthol TRPV1 Activation [1]: 38.1%
27 | CCC(C)(O)CCc1ccccc1 (stereo not drawn) [ethyl methyl beta-phenylethyl carbinol] |  |  | 2253.5 Counts | 68% | BLOCK ONLY H2O2/TRPA1 | 
28 | CC12CCC(C1)C(C)(C)C2=O (stereo not drawn) [fenchone] |  |  | 2761.5 Counts | 60.8% | BLOCK ONLY H2O2/TRPA1 | 
29 | [Cl][Fe]([Cl])[Cl] [ferric chloride] |  |  | 3287.0 Counts |  | BLOCK ONLY H2O2/TRPA1 | % Reduction of Hydrogen Peroxide TRPA1 Activation [2, 3]: 53.3%
30 | CCC1CCC(=O)O1 (stereo not drawn) [gamma-caprolactone] | 1084.3 Counts | 41.8% |  |  |  | 
31 | CC1=CCC(C(C)C)=CC1 [gamma-terpinene] |  |  | 3124.0 Counts | 55.6% | BLOCK ONLY H2O2/TRPA1 | 
32 | CC(=O)C(=O)OCCC(C)C [isoamyl pyruvate] |  |  | 2824.0 Counts | 59.9% | BLOCK ONLY H2O2/TRPA1 | 
33 | CC(C)COC(=O)C(C)C [isobutyl isobutyrate] |  |  | 3383.0 Counts | 52% | BLOCK ONLY H2O2/TRPA1 | 
34 | CC(C)CCO [isopentyl alcohol] |  |  | 3778.0 Counts | 56.7% | BLOCK ONLY H2O2/TRPA1 | 
35 | CCCCCC(=O)OC(C)C [isopropyl hexanoate] |  |  | 2862.0 Counts | 59.4% | BLOCK ONLY H2O2/TRPA1 | 
36 | O=C(O)CC(O)C(=O)O (stereo not drawn) [malic acid] |  |  | 5617.5 Counts | 47% | BLOCK ONLY H2O2/TRPA1 | 
37 | COC(=O)c1ccc(O)cc1 [methyl 4-hydroxybenzoate] |  |  | 4904.5 Counts | 53.7% | BLOCK ONLY H2O2/TRPA1 | 
38 | CCCCCCCCCCCC(=O)OC [methyl laurate] | 1199.7 Counts | 36.4% |  |  |  | 

Row | Molecule | Average Ca2+ Counts [1] | inhibition at 100 µM [1] | Average Ca++ Counts [2, 3] | inhibition at 100 µM [2, 4] | Block of hydrogen peroxide activation of TRPA1 [2, 5] | further results
39 | CCCCC/C=C\C/C=C\CCCCCCCC(=O)OC [methyl linoleate] |  |  | 3363.5 Counts | 52.2% | BLOCK ONLY H2O2/TRPA1 | 
40 | CCCCC/C=C/C(=O)OC [methyl trans-2-octenoate] | 1538.7 Counts | 20.7% |  |  |  | 
41 | COC(=O)c1ccccc1 [methylbenzoate] |  |  |  |  |  | Average Ca++ Counts [2]: 3817.0 Counts; Block of hydrogen peroxide activation of TRPA1 [2]: BLOCK ONLY H2O2/TRPA1; inhibition at 100 µM [2, 6]: 56.2%
42 | CCCCO [n-butyl alcohol] |  |  |  |  |  | % Reduction of Hydrogen Peroxide TRPA1 Activation [2]: 57.3%; Average Ca++ Counts [2]: 3009.0 Counts; Block of hydrogen peroxide activation of TRPA1 [2]: BLOCK ONLY H2O2/TRPA1
43 | C/C=C(/C)C1CCC(C)(C)O1 (stereo not drawn) [ocimene quintoxide] | 1236.3 Counts |  |  |  |  | % Reduction of L-Menthol TRPV1 Activation [1]: 34.7%
44 | Cc1ccc(C(C)(C)O)cc1 [p-cymen-8-ol] |  |  |  |  |  | % Reduction of Hydrogen Peroxide TRPA1 Activation [2]: 50.6%; Average Ca++ Counts [2]: 3476.5 Counts; Block of hydrogen peroxide activation of TRPA1 [2]: BLOCK ONLY H2O2/TRPA1
45 | OCc1ccccc1 [phenyl-methanol] |  |  | 5244.5 Counts | 50.5% | BLOCK ONLY H2O2/TRPA1 | 
46 | CC(C)CC(=O)OCCc1ccccc1 [phenylethyl isovalerate] |  |  | 3291.5 Counts | 53.3% | BLOCK ONLY H2O2/TRPA1 | 
47 | CCC(O)c1ccccc1 (stereo not drawn) [phenylpropanol (1-phenyl 1-propanol), 1-phenyl 1-propanol] | 1218.3 Counts | 35.6% |  |  |  | 
48 | c1ccc2ncccc2c1 [quinoline] |  |  | 3440.0 Counts | 51.2% | BLOCK ONLY H2O2/TRPA1 | 
49 | O=C1O[C@H]([C@H](O)CO)C([O-])=C1O.[Na+] [sodium erythorbate] |  |  |  |  |  | % Reduction of Hydrogen Peroxide TRPA1 Activation [2]: 54.5%; Average Ca++ Counts [2]: 3204.5 Counts; Block of hydrogen peroxide activation of TRPA1 [2]: BLOCK ONLY H2O2/TRPA1
50 | Cc1ccc(C(C)C)c(O)c1 [thymol] | 1331.3 Counts | 30.3% |  |  |  | 
51 | CCC/C=C/C=O [trans-2-Hexenal] |  |  |  |  |  | Block of hydrogen peroxide activation of TRPA1 [2]: BLOCK ONLY H2O2/TRPA1; inhibition at 400 µM [2, 6]: 52%
52 | CCC/C=C/C(OCC)OCC [trans-2-hexen-1-al diethyl acetal] | 1169.0 Counts | 37.9% |  |  |  | 
53 | NC(N)=O [urea] |  |  |  |  |  | % Reduction of Hydrogen Peroxide TRPA1 Activation [2]: 52.4%; Average Ca++ Counts [2]: 5045.5 Counts; Block of hydrogen peroxide activation of TRPA1 [2]: BLOCK ONLY H2O2/TRPA1
54 | CCCCCCCCC1CCC(=O)O1 (stereo not drawn) [γ-Dodecalactone] |  |  |  |  |  | % Reduction of Hydrogen Peroxide TRPA1 Activation [2]: 51%; Block of hydrogen peroxide activation of TRPA1 [2]: BLOCK ONLY H2O2/TRPA1
55 | CCCCCCC1(C)CCC(=O)O1 (stereo not drawn) [γ-Methyl Decalactone] |  |  |  |  | BLOCK ONLY H2O2/TRPA1 | % Reduction of Hydrogen Peroxide TRPA1 Activation ([2]; antagonist 100 μM against 200 μM hydrogen peroxide): 48%
56 | d-(−)-lactic acid | 1093.7 Counts |  |  |  |  | % Reduction of L-Menthol TRPV1 Activation [1]: 41.3%
57 | desoxycholic acid |  |  |  |  |  | % Reduction of Hydrogen Peroxide TRPA1 Activation [2]: 56.6%; Average Ca++ Counts [2]: 3058.5 Counts; Block of hydrogen peroxide activation of TRPA1 [2]: BLOCK ONLY H2O2/TRPA1
